Measurements from patent US10059717B2, “Urea compounds containing 3,4-dihydropyrimido[4,5-D]pyrimidin-2(1H)-one skeleton as protein kinase inhibitors” (KOREA INSTITUTE OF SCIENCE AND TECHNOLOGY, priority 2016, dated 2018).

What was measured:
Assay in all cases: Kinase panel biochemical assay
Details in all cases: 1 μM single concentration, read-out: % residual enzyme activity
LCK = LCK (Homo sapiens, UniProt P06239)
Description: (§1) In order to measure the protein kinase inhibitory activity (% inhibition) of the compounds of the present invention, biochemical assays were performed on the full kinase panel listed in the following Table 1.
(§2) As an test compound, 1-(3-(7-((6-(4-ethylpiperazine-1-carbonyl)pyridin-3-yl)amino)-1-methyl-2-oxo-1,4-dihydropyrimido[4,5-d]pyrimidin-3(2H)-yl)-4-methylphenyl)-3-(2-methoxyphenyl)urea (Compound No. 14) was used. The kinase inhibitory efficacy was measured upon treatment with a 1 μM single concentration of the test compound to calculate % residual enzyme activity value.
(§3) ABL1, FGFR2, TAOK2/TAO1, EPHA5, EPHB2, EPHB3, RET, LYN B, EPHA2, FRK/PTK5, EPHA8, LCK, EPHB4, FYN, KHS/MAP4K5, DDR1, EPHA3, P38a/MAPK14, EPHA4, FMS, EPHB1, HCK, FGFR1, ABL2/ARG, EPHA6, c-Src, ACK1, FLT4NEGFR3, ERBB4/HER4, DDR2, KDRNEGFR2, LYN, ZAK/MLTK, YES/YES1, BLK, FGR, MLCK2/MYLK2, TAOK1, BMX/ETK, BTK, EPHA1, JAK1, P38b/MAPK11, TIE2/TEK, FLT1NEGFR1, TXK, SRMS, RAF1, SIK1, MLK3/MAP3K11, PEAK1, TRKA, EPHA7, GLK/MAP4K3, MLK2/MAP3K10, TEC, CSK, TRKC, FES/FPS, SIK2, FGFR3, BRK, YSK4/MAP3K19, ARAF, PDGFRb, TNK1, GCK/MAP4K2, PDGFRa, TNIK, TAK1, ERBB2/HER2, LIMK1, HIPK4, FER, EGFR, JAK2, HPK1/MAP4K1, TRKB, RIPK3, LOK/STK10, LIMK2, MLK1/MAP3K9, BRAF, MEKK3, MEK5, STK32B/YANK2, FGFR4, MEKK2, SLK/STK2, FLT3, PKAcg, TAOK3/JIK, TYRO3/SKY, SIK3, IR, LRRK2, PYK2, NEK11, p70S6K/RPS6KB1, LATS2.

FRK/PTK5 = FRK/PTK5 (Homo sapiens, UniProt P42685)
Description: as §1, §2, §3

JAK1 = JAK1 (Homo sapiens, UniProt P23458)
Description: as §1, §2, §3

MEKK3 = MEKK3 (Homo sapiens, UniProt Q99759)
Description: as §1, §2, §3

SIK1 = SIK1 (Homo sapiens, UniProt P57059)
Description: as §1, §2, §3

LATS2 = LATS2 (Homo sapiens, UniProt Q9NRM7)
Description: as §1, §2, §3

TEC = TEC (Homo sapiens, UniProt P42680)
Description: as §1, §2, §3

EPHB2 = EPHB2 (Homo sapiens, UniProt P29323)
Description: as §1, §2, §3

SLK/STK2 = SLK/STK2 (Homo sapiens, UniProt Q9H2G2)
Sequence of SLK/STK2 (Q9H2G2 whole entry): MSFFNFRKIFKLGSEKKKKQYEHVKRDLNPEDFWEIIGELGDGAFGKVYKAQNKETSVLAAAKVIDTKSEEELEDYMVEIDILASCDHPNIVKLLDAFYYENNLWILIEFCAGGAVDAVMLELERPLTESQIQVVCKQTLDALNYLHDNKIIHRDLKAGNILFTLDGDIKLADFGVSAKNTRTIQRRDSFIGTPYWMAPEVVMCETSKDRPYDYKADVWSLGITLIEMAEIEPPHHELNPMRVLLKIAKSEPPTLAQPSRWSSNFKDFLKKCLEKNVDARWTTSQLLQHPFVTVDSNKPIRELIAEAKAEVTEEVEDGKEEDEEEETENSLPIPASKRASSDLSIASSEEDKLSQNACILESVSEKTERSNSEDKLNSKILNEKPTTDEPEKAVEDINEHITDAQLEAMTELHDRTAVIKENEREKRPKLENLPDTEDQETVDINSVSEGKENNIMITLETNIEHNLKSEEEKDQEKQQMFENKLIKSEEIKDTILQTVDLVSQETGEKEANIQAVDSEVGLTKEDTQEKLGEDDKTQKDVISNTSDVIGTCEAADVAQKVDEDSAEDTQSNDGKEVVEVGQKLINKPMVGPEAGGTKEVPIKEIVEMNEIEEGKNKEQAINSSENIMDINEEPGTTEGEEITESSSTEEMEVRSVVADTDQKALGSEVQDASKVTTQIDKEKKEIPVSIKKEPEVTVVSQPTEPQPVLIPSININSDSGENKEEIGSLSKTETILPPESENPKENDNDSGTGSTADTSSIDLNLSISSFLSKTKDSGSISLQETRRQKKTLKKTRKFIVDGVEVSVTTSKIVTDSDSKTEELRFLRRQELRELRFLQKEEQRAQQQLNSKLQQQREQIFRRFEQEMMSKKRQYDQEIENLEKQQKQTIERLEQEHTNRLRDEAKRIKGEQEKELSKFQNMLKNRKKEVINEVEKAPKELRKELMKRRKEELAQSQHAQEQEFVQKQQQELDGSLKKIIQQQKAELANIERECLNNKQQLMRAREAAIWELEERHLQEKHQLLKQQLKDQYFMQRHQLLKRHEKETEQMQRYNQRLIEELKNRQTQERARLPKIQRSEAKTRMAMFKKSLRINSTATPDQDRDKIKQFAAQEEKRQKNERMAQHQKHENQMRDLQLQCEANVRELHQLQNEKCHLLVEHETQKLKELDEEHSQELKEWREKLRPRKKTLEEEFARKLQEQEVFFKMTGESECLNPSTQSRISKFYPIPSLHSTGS
Description: as §1, §2, §3

LYN B = LYN B (Homo sapiens, UniProt P07948)
Description: as §1, §2, §3

FLT4NEGFR3 = FLT4NEGFR3 (Homo sapiens, UniProt P35916)
Description: as §1, §2, §3

JAK2 = JAK2 (Homo sapiens, UniProt O60674)
Description: as §1, §2, §3

STK32B/YANK2 = STK32B/YANK2 (Homo sapiens, UniProt Q9NY57)
Description: as §1, §2, §3

PYK2 = PYK2 (Homo sapiens, UniProt Q14289)
Description: as §1, §2, §3

TRKB = TRKB (Homo sapiens, UniProt Q16620)
Sequence of TRKB (Q16620 32-822): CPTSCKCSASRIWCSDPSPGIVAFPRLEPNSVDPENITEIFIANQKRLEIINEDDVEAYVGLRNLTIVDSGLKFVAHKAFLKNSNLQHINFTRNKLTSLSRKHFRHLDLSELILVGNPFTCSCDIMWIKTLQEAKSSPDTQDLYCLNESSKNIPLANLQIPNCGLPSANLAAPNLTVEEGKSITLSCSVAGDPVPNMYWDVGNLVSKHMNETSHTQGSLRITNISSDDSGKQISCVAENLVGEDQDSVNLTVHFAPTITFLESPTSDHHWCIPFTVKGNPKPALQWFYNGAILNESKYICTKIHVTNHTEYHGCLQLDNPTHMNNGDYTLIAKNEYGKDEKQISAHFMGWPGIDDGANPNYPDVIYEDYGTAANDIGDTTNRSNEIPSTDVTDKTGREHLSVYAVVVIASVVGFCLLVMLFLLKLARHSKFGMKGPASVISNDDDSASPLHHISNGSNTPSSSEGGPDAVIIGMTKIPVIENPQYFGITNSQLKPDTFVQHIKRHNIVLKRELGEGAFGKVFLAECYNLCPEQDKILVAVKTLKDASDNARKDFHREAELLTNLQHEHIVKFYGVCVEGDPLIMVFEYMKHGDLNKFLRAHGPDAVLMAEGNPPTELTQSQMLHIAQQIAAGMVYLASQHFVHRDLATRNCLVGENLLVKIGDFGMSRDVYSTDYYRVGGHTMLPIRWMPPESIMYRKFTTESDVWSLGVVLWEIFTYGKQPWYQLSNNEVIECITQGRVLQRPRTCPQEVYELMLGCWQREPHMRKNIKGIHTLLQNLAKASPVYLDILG
Description: as §1, §2, §3

GLK/MAP4K3 = GLK/MAP4K3 (Homo sapiens, UniProt Q8IVH8)
Sequence of GLK/MAP4K3 (Q8IVH8 whole entry): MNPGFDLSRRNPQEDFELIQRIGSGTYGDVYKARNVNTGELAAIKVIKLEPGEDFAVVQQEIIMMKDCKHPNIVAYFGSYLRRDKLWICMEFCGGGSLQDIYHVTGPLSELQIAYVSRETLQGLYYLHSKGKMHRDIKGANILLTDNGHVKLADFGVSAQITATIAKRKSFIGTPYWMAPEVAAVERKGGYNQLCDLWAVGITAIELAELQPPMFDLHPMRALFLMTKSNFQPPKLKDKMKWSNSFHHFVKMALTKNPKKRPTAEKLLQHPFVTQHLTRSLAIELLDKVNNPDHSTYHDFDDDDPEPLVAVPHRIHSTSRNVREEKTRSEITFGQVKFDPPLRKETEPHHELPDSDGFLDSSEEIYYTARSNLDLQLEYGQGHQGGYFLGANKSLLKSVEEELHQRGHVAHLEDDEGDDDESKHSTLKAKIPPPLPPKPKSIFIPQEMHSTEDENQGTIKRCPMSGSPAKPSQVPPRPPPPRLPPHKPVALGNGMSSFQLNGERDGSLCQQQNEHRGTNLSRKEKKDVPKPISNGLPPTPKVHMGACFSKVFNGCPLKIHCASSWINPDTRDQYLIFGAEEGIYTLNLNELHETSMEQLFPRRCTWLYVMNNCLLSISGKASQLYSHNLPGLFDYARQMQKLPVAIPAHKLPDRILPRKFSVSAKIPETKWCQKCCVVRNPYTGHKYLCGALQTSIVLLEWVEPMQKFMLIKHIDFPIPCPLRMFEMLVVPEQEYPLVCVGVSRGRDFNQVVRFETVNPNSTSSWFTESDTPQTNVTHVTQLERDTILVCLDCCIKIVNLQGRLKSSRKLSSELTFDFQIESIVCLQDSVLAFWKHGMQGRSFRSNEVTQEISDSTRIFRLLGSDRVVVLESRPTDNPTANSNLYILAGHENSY
Description: as §1, §2, §3

ARAF = ARAF (Homo sapiens, UniProt P10398)
Sequence of ARAF (P10398 whole entry): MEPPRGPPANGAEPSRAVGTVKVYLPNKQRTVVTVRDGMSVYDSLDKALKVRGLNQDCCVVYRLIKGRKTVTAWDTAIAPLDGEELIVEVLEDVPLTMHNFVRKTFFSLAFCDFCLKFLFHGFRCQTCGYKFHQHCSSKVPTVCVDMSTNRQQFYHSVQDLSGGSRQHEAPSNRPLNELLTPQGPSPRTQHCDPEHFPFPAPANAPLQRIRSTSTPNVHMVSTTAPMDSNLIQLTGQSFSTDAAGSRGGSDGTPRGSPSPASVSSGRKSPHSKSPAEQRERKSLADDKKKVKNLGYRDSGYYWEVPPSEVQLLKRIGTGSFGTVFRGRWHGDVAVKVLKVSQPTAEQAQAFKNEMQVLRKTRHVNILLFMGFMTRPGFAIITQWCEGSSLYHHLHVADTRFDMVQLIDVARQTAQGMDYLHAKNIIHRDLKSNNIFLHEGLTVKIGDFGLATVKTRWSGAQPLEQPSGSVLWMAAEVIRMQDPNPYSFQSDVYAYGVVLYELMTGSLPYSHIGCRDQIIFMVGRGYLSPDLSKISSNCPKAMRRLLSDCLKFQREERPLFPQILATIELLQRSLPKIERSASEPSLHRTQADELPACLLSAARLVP
Description: as §1, §2, §3

MLK2/MAP3K10 = MLK2/MAP3K10 (Homo sapiens, UniProt Q02779)
Description: as §1, §2, §3

ABL2/ARG = ABL2/ARG (Homo sapiens, UniProt P42684)
Sequence of ABL2/ARG (P42684 whole entry): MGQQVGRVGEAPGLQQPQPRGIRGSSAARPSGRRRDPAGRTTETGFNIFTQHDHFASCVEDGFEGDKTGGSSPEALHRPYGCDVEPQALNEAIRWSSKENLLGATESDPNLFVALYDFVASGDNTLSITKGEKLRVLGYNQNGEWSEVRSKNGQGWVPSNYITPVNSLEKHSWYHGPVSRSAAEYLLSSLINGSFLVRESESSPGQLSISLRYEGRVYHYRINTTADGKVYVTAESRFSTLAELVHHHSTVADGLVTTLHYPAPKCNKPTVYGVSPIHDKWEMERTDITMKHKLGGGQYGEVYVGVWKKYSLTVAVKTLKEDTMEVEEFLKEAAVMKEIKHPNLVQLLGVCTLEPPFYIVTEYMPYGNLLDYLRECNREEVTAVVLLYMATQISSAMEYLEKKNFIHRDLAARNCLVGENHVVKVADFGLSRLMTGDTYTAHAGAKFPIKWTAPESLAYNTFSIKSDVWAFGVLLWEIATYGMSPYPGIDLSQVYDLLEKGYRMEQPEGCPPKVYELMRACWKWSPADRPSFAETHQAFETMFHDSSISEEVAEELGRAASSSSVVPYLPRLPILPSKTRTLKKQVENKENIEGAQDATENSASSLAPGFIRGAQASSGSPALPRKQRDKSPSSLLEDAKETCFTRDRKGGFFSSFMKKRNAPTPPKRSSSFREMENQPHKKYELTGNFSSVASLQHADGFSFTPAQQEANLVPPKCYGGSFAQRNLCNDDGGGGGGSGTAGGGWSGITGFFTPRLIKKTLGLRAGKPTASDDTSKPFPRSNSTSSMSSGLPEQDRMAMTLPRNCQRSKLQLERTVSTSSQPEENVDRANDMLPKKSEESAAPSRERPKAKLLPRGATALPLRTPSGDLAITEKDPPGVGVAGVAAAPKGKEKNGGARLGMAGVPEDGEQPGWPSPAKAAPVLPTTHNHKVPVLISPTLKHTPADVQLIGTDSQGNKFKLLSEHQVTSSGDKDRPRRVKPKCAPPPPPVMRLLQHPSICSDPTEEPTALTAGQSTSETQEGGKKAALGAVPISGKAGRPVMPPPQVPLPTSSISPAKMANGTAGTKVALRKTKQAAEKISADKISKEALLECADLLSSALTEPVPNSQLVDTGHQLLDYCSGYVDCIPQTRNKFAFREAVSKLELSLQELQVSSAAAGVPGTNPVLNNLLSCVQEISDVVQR
Description: as §1, §2, §3

SIK2 = SIK2 (Homo sapiens, UniProt Q9H0K1)
Description: as §1, §2, §3

PEAK1 = PEAK1 (Homo sapiens, UniProt Q9H792)
Description: as §1, §2, §3

BMX/ETK = BMX/ETK (Homo sapiens, UniProt P51813)
Description: as §1, §2, §3

PDGFRa = PDGFRa (Homo sapiens, UniProt P16234)
Description: as §1, §2, §3

RIPK3 = RIPK3 (Homo sapiens, UniProt Q9Y572)
Description: as §1, §2, §3

DDR1 = DDR1 (Homo sapiens, UniProt Q08345)
Description: as §1, §2, §3

TAOK1 = TAOK1 (Homo sapiens, UniProt Q7L7X3)
Description: as §1, §2, §3

LIMK2 = LIMK2 (Homo sapiens, UniProt P53671)
Description: as §1, §2, §3

TAK1 = TAK1 (Homo sapiens, UniProt O43318)
Sequence of TAK1 (O43318 1-303 limits assumed): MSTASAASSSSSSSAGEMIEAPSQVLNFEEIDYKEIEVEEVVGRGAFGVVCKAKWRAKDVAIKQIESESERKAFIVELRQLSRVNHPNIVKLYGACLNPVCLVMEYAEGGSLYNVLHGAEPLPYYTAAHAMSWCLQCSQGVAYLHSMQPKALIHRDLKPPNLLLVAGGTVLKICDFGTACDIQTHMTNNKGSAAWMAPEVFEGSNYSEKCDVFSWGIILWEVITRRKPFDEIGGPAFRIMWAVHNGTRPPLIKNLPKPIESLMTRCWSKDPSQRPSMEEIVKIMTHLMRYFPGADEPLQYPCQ
Description: as §1, §2, §3

FGFR3 = FGFR3 (Homo sapiens, UniProt P22607)
Description: as §1, §2, §3

EPHB1 = EPHB1 (Homo sapiens, UniProt P54762)
Description: as §1, §2, §3

c-Src = c-Src (Homo sapiens, UniProt P12931)
Description: as §1, §2, §3

Measured: remaining activity at 1 µM

CCN1CCN(C(=O)c2ccc(Nc3ncc4c(n3)N(C)C(=O)N(c3cc(NC(=O)Nc5ccccc5OC)ccc3C)C4)cn2)CC1 [Compound No. 14, 1-(3-(7-((6-(4-ethylpiperazin-1-carbonyl)pyridin-3-yl)amino)-1-methyl-2-oxo-1,4-dihydropyrimido[4,5-d]pyrimidin-3(2H)-yl)-4-methylphenyl)-3-(2-methoxyphenyl)urea]
≤ 30%: all assays above
